Patent publication US8163803B2 (Fundação Oswaldo Cruz—FIOCRUZ, priority 2004, dated 2012)

How the values were obtained:
Swiss 44 mice = experiment: Convulsivant activity after intraperitoneal injection; assay type: in vivo
Protocol: Female and male Swiss 44 mice were used, weighing between 25 and 30 g, they came from Oswaldo Cruz Foundation's Center of Laboratory Animal Raising. The procedures involving the animals were examined and approved by Oswaldo Cruz Foundation's Committee of Animal Ethics (CEUA-FIOCRUZ, Act 00085-02). […] For each molecule, the necessary dose to induce a convulsive clinical Figure in 50% of the animals (DE50) was determined by linear regressive curves interpoled (GraphPad Prim, version 3.03).

[1] = test system: experimental animal trachea; experiment: Relaxation of trachea pre-contracted by anaphylactic stimulation (ovoalbumin); details: pre-contracted with ovoalbumin (20 μg/ml), average±SEM, at least 3 animals; read-out: IC50, concentration necessary to relax in 50% the anaphylatic spasm of trachea
Protocol: Female and male experimental animals were used, weighing between 300 and 400 g, they came from Oswaldo Cruz Foundation's Center of Laboratory Animal Raising. The procedures involving the animals were examined and approved by Oswaldo Cruz Foundation's Committee of Animal Ethics (CEUA-FIOCRUZ, License number 00085-02). The animals were sensitized through a subcutaneous injection with a mixture of 50 μg ovoalbumin and 5 mg Al(OH)3. Fourteen to thirty days after the sensitization, the experimental animal was sacrificed in a chamber of carbonic gas to have its trachea removed. The trachea was transferred to a Petri dish containing Krebs solution (composition in mM) (NaCl-119; […] NaHCO3-25; […] The total segment was divided into fragments of about 3 to 4 rings that were sectioned at the extreme ending, the muscular part of the trachea. Each fragment had one of its ends tied to a rod while the other end was connected to an isometric transductor (U Basile, Italy) after the transference from the rod to a 10 ml glass cuvette. […] The contractions were registered with the […] of a computerized system of data capture (Letica, Spain). […] The results were shown as a percentage of relaxation in relation to the plateau of the anaphylatic pre-contraction. Concentration-response data were adjusted through non-linear regression curves with the […] of a graphics software (GraphPad Prism, USA). […] The values were expressed as an average± standard error of the mean and statistically analysed through the test of analysis variance (ANOVA), followed by the Newman-Keuls-Student test.

[2] = test system: cutaneous sites of the dorsal region of adult Wistar rats; experiment: Local anesthetic activity, intradermal injection in dorsal skin, response to mechanical stimulation; assay type: in vivo; details: for time of anesthesia compared with lidocaine: doses from 0.5 to 4 μMol/site
Protocol: Female and male Wistar rats, weighing between 200 and 250 g, they came from Oswaldo Cruz Foundation's Center of Laboratory Animal Raising were used. The procedures involving the animals were examined and approved by Oswaldo Cruz Foundation's Committee of Animal Ethics (CEUA-FIOCRUZ, License number 00085-02). After brief anesthesia by exposure to the atmosphere enriched with […] animals were trichotomized dorsal region, where the […] injections with substances for test were performed; doses varied from 0.5 to 4 μMol/site, and vehicule (NaCl 0.9%) (negative control), the final volume was 50 μl. Each animal took six injections and four animals were used for each tested substance. The application points were mechanically estimulated with a tweezer in order to evaluate the integrity of sensitiveness. The site was considered not to be anesthesized whenever after the mechanical stimulation it was observed a local retraction of the skin, according to what had been previously reported. The evaluations began 10 minutes after intradermal injections had been taken, which continued every five minutes until it was obtained the cutaneous retraction response. The values (average±standard error of the mean, SEM) were expressed in terms of “Time of Anesthesia” in minutes.

eosinophils of rats = experiment: Cytosolic calcium increase in eosinophils stimulated with PAF (Fura 2-AM); assay type: cell-based, Wistar rats; details: PAF (1 μM); for inhibition of citosolic calcium increase compared with lidocaine: 5 min pre-incubation
Protocol: Female and male Wistar rats were used, weighing between 200 and 250 g, they came from Oswaldo Cruz Foundation's Center of Laboratory Animal Raising. The procedures involving the animals were examined and approved by Oswaldo Cruz Foundation's Committee of Animal Ethics (CEUA-FIOCRUZ, Licenca no. 00085-02).
The animals were sacrificed in a chamber of CO2 and a population of cells containing 10-15% eosinophils were recovered from the peritoneal cavity after washing the same with 20 ml Hanks, as previously described. After centrifugation, the cellular sediment was resuspended and the leukocytes subtypes (mononuclear cells, eosinophils and mast cells) separated in a discontinuous gradient of Percoll (double layer) centrifugated at 400×g for 25 minutes. The eosinophils (85-95% purity) were recovered in the interface 56%-72%, washed in RPMi medium to eliminate residue of Percoll and related. The total cells isolated was obtained after the dilution of a sample in Türk liquid and couting in Neubauer chamber with the assistance of direct-light microscopy. The populational purity analysis was done by direct-light microscopy in cytocentrifugates dyed with May-Grunwald-Giemsa.
The eosinophils (1×10^7/ml) were loaded with 3 μM Fura 2-AM as described, washed in PBS enriched with 0.1% BSA, and resuspended in a final concentration of 0.5×10^6/ml PBS containing 0.25% BSA, HEPES and glucose ([…]). Alíquotas de células (1.5 ml) were dispensed in quartz cuvettes and balanced with 1 mM calcium at 37° C. for 10 minutes before being used. Fluorescence changes were measured by fluorometer Shimatzu (model RF 1501) as previously described. The calculus of free calcium was derived from the fluorescence spectrum (wave length of excitation, 340 and 380 nm; emission 510 nm) according to the method established. The values were represented as percentage of inhibition in relation to group control. […]
The values were expressed as an average± standard error of the mean and statistically analyzed through the test of variance analysis (ANOVA), followed by the Newman-Keuls-Student test.

[3] = test system: sensitized experimental animals; experiment: Pulmonary eosinophil infiltrate after ovoalbumin aerosol challenge, bronchoalveolar lavage count; assay type: in vivo; details: 5% aerosol, 30 min, with ovoalbumin 1% plus 3 aerosolizations every 3 h; lavage 24 h after challenge
Protocol: The animals were sensitized through a cutaneous injection of a mixture with 50 μg ovoalbumin and 5 mg Al(OH)3, and challenged with ovoalbumin (1%) aerosol for 30 min 14 days afterwards, according to what was previously described. In order to avoid death of animals by anaphylatic asphyxia, all of them were treated intraperitonially with the anti-histaminic difenidramine (30 mg/kg) 30 minutes before being challenged.
Bronchoalveolar Lavage and Eosinophils Counting
All the animals were anesthesized terminally through an intraperitonial injection of pentobarbital (200 mg/kg) 24 h after the antigenic challenge, to wash the bronchoalveolar space according to the techniques previously described. Total leukocyte count were done after dilution of bronchoalveolar lavage samples in Turk liquid and counting in the Neubauer chamber with the assistance of direct-light microscopy. The differential eosinophil count was done also under direct-light microscopy, after centrifugation of samples of the lavage as well as its exposure to specific dyestuff (May-Grunwald-Giemsa dye).
The averages± standard error of the mean of the groups investigated were analyzed based on statistics through the test of variance analysis (ANOVA), followed by the Newman-Keuls-Student test.
Values, expressed in terms of “number of eosinophils×10^6/lavage” are presented as average±SEM in at least 7 animals. In the negative control group, animals previously sensitized were artificially-challenged through exposure to sterile saline (NaCl, 0.9%) aerosol. […] “*” represents the difference statistically significant (P<0.05), when the group treated and the positive control group were compared.

[4] = intraperitoneal, 15 minutes after injection, 10 mice per dose

Compound	DE50, dose to induce convulsion in 50% of the animals (Swiss 44 mice; mouse, in vivo, ip) [mg/kg]	IC50 [1] [µM]	time of anesthesia compared with lidocaine [2]	inhibition of citosolic calcium increase compared with lidocaine (eosinophils of rats)	blocking the accumulation of eosinophils in the bronchoalveolar area [3]	convulsivant activity compared with lidocaine (Swiss 44 mice; 40-500 mg/Kg intraperitoneal)	DE50, dose to induce convulsion in 50% of the animals (Swiss 44 mice; [4]) [mg/kg]	percentage of injected animals led to convulsion (Swiss 44 mice; 80 mg/Kg intraperitoneal) [%]	Time of Anesthesia ([2]; 4 μMol/site intradermal, n=4, average±SEM) [min]	blocking of the increase of citosolic calcium (eosinophils of rats; highest concentration (1 mM), Average±SEM, n=8) [%]
CCN(CC)CC(=O)Nc1cccc(C)c1C [JM23-1, 2-dyethylamine-2′,3′-acetoxylidide]	154	220 ± 60	significantly inferior	equipotent to lidocaine	–	–	–	–	–	–
CCN(CC)CC(=O)Nc1ccc(C)cc1C [JM24-1, 2-dyethylamine-2′,4′-acetoxylidide]	–	30	significantly inferior	so effective as lidocaine and JM23-1 in higher concentrations	equipotent to lidocaine	noticeably inferior	230	–	–	–
CCN(CC)CC(=O)Nc1c(C)cccc1C [Lidocaine, 1-(2-(dyethylamine)N-dymethylfenyl)-acetamide, reference compound]	–	1350 ± 20	–	–	clearly sensitive to lidocaine treatment	–	62	100	168 ± 3	47±2
